Reference: publication PMC8909834, “An Orally Bioavailable and Highly Efficacious Inhibitor of CDK9/FLT3 for the Treatment of Acute Myeloid Leukemia” (Cancers, 2022)

Legend:
Assay in all cases: Kinase Hotspot radiolabel assay
Type in all cases: biochemical
Settings in all cases: read-out: % Residual Activity
ABL2/ARG = molecular target: T1, ABL2/ARG (Homo sapiens, UniProt P42684)
T1 construct: purchased Reaction Biology Corporation (Kinase HotSpot)
Summary of the method: (§1)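 Profiled at 1 µM compound within a 369-kinase panel using a radiolabel Hotspot format. Ki values were then determined for kinases showing greater than 90% inhibition.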

ACK1 = molecular target: T2, ACK1 (Homo sapiens, UniProt Q07912)
T2 construct: purchased Reaction Biology Corporation (Kinase HotSpot)
Summary of the method: as §1

AKT1 = molecular target: T3, AKT1 (Homo sapiens, UniProt P31749)
T3 construct: purchased Reaction Biology Corporation (Kinase HotSpot)
Summary of the method: as §1

ALK2/ACVR1 = molecular target: T4, ALK2/ACVR1 (Homo sapiens, UniProt Q04771)
T4 construct: purchased Reaction Biology Corporation (Kinase HotSpot)
Summary of the method: as §1

ALK5/TGFBR1 = molecular target: T5, ALK5/TGFBR1 (Homo sapiens, UniProt P36897)
T5 construct: purchased Reaction Biology Corporation (Kinase HotSpot)
Summary of the method: as §1

CAMKK2 = molecular target: T6, CAMKK2 (Homo sapiens, UniProt Q96RR4)
T6 construct: purchased Reaction Biology Corporation (Kinase HotSpot)
Summary of the method: as §1

CDK5/p25 = molecular target: T7, CDK5/p25 (Homo sapiens, UniProt Q00535)
T7 construct: purchased Reaction Biology Corporation (Kinase HotSpot)
Summary of the method: as §1

CDK7/cyclin H = molecular target: T8, CDK7/cyclin H (Homo sapiens, UniProt P50613)
T8 construct: purchased Reaction Biology Corporation (Kinase HotSpot)
Summary of the method: as §1

CK2a2 = molecular target: T9, CK2a2 (Homo sapiens, UniProt P19784)
T9 construct: purchased Reaction Biology Corporation (Kinase HotSpot)
Summary of the method: as §1

DAPK1 = molecular target: T10, DAPK1 (Homo sapiens, UniProt P53355)
T10 construct: purchased Reaction Biology Corporation (Kinase HotSpot)
T10 sequence (P53355 whole entry): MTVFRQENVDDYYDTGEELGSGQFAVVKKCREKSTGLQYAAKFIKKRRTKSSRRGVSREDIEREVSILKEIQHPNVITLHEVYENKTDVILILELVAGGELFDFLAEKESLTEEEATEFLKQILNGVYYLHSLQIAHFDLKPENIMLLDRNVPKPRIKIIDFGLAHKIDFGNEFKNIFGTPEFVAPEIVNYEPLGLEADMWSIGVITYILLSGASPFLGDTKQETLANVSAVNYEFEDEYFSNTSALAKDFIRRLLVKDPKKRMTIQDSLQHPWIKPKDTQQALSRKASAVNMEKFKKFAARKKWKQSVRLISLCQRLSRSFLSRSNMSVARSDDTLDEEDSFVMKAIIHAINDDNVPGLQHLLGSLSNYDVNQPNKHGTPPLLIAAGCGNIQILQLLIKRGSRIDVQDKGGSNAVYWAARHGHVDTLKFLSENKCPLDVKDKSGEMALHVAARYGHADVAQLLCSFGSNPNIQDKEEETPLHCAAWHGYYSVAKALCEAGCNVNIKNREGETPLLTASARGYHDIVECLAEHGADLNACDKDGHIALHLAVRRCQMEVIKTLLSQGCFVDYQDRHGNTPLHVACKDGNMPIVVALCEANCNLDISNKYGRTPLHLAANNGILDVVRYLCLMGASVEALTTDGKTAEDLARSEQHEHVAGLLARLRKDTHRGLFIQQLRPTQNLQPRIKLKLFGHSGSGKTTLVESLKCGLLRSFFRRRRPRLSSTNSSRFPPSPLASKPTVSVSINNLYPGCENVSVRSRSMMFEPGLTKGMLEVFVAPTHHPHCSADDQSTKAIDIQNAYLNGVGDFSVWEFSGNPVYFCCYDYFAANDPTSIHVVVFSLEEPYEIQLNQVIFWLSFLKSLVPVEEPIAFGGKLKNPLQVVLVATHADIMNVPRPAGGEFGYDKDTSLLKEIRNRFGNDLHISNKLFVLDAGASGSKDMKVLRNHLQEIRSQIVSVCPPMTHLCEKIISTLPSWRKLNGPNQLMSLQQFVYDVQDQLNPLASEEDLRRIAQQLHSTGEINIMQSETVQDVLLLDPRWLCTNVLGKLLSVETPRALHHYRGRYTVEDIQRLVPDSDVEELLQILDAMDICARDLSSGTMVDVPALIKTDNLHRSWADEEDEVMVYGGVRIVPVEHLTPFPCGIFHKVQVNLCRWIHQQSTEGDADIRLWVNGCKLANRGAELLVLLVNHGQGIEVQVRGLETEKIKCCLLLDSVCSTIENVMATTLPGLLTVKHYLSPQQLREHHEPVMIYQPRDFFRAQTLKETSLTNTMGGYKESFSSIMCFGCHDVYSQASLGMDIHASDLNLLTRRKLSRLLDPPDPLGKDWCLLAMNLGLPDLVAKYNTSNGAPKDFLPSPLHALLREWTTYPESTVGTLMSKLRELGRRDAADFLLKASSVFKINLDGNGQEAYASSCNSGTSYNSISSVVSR
Summary of the method: as §1

DAPK2 = molecular target: T11, DAPK2 (Homo sapiens, UniProt Q9UIK4)
T11 construct: purchased Reaction Biology Corporation (Kinase HotSpot)
T11 sequence (Q9UIK4 whole entry): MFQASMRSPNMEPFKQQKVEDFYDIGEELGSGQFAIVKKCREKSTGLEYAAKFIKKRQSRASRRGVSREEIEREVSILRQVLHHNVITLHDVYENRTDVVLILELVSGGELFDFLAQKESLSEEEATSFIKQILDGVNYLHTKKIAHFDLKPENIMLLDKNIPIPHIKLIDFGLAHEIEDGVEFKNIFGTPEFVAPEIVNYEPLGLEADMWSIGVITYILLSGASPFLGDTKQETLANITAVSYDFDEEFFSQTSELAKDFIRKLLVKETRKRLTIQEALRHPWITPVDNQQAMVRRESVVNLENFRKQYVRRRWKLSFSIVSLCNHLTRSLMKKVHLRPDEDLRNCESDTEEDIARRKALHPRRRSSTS
Summary of the method: as §1

DMPK = molecular target: T12, DMPK (Homo sapiens, UniProt Q09013)
T12 construct: purchased Reaction Biology Corporation (Kinase HotSpot)
T12 sequence (Q09013 whole entry): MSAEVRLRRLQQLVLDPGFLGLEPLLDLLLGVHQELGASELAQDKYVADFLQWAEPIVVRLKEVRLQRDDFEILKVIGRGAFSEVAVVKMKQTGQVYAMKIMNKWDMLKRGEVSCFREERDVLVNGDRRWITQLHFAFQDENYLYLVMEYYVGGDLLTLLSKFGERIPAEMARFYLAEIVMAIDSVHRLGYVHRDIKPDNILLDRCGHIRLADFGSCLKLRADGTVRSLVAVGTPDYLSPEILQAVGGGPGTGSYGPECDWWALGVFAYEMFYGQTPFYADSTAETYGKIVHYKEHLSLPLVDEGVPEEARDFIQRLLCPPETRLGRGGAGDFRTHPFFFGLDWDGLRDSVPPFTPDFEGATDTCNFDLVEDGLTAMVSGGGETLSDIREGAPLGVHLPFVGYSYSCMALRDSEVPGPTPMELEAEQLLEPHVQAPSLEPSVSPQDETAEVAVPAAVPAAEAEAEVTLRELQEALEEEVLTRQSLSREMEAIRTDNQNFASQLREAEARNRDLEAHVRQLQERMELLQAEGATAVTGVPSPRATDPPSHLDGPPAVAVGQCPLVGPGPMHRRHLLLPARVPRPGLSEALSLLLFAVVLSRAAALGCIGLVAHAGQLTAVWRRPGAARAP
Summary of the method: as §1

EPHA8 = molecular target: T13, EPHA8 (Homo sapiens, UniProt P29322)
T13 construct: purchased Reaction Biology Corporation (Kinase HotSpot)
Summary of the method: as §1

FER = molecular target: T14, FER (Homo sapiens, UniProt P16591)
T14 construct: purchased Reaction Biology Corporation (Kinase HotSpot)
Summary of the method: as §1

FGR = molecular target: T15, FGR (Homo sapiens, UniProt P09769)
T15 construct: purchased Reaction Biology Corporation (Kinase HotSpot)
Summary of the method: as §1

FLT3 = molecular target: T16, FLT3 (Homo sapiens, UniProt P36888)
T16 construct: purchased Reaction Biology Corporation (Kinase HotSpot)
Summary of the method: as §1

GSK3b = molecular target: T17, GSK3b (Homo sapiens, UniProt P49841)
T17 construct: purchased Reaction Biology Corporation (Kinase HotSpot)
T17 sequence (P49841 whole entry): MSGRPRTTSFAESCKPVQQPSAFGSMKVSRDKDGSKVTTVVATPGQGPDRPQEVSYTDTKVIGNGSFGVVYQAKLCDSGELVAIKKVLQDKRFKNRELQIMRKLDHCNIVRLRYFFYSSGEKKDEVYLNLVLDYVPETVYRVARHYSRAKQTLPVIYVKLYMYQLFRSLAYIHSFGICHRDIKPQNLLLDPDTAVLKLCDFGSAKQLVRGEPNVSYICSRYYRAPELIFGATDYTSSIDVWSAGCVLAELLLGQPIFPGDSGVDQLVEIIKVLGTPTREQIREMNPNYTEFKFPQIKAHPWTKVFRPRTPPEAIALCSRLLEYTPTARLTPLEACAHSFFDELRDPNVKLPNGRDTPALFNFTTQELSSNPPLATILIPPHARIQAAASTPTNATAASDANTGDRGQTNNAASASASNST
Summary of the method: as §1

Haspin = molecular target: T18, Haspin (Homo sapiens, UniProt Q8TF76)
T18 construct: purchased Reaction Biology Corporation (Kinase HotSpot)
T18 sequence (Q8TF76 whole entry): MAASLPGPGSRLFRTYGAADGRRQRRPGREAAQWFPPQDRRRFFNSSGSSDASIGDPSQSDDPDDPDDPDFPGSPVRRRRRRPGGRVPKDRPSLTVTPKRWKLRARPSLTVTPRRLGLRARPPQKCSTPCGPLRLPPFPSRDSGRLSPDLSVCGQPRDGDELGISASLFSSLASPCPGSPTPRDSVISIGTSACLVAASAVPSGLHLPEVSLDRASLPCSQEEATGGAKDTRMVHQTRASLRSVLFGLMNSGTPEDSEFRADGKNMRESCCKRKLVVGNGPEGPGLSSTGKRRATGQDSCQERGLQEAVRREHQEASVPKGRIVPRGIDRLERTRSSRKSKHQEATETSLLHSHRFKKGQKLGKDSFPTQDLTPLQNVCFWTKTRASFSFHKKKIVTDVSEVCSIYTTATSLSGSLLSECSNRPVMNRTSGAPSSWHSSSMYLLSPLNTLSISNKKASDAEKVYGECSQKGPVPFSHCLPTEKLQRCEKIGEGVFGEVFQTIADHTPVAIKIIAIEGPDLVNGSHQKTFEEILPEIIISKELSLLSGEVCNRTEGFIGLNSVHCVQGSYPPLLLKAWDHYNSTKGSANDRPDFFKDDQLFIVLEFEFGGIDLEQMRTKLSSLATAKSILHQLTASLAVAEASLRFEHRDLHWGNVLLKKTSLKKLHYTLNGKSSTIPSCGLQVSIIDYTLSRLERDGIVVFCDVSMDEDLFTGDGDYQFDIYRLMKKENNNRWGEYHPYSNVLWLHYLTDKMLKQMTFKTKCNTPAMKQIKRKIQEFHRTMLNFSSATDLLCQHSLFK
Summary of the method: as §1

IRR/INSRR = molecular target: T19, IRR/INSRR (Homo sapiens, UniProt P14616)
T19 construct: purchased Reaction Biology Corporation (Kinase HotSpot)
Summary of the method: as §1

MEK5 = molecular target: T20, MEK5 (Homo sapiens, UniProt Q13163)
T20 construct: purchased Reaction Biology Corporation (Kinase HotSpot)
Summary of the method: as §1

MUSK = molecular target: T21, MUSK (Homo sapiens, UniProt O15146)
T21 construct: purchased Reaction Biology Corporation (Kinase HotSpot)
Summary of the method: as §1

NEK6 = molecular target: T22, NEK6 (Homo sapiens, UniProt Q9HC98)
T22 construct: purchased Reaction Biology Corporation (Kinase HotSpot)
Summary of the method: as §1

PBK/TOPK = molecular target: T23, PBK/TOPK (Homo sapiens, UniProt Q96KB5)
T23 construct: purchased Reaction Biology Corporation (Kinase HotSpot)
Summary of the method: as §1

PDGFRb = molecular target: T24, PDGFRb (Homo sapiens, UniProt P09619)
T24 construct: purchased Reaction Biology Corporation (Kinase HotSpot)
Summary of the method: as §1

PKAcb = molecular target: T25, PKAcb (Homo sapiens, UniProt P22694)
T25 construct: purchased Reaction Biology Corporation (Kinase HotSpot)
Summary of the method: as §1

ROCK2 = molecular target: T26, ROCK2 (Homo sapiens, UniProt O75116)
T26 construct: purchased Reaction Biology Corporation (Kinase HotSpot)
Summary of the method: as §1

STK25/YSK1 = molecular target: T27, STK25/YSK1 (Homo sapiens, UniProt O00506)
T27 construct: purchased Reaction Biology Corporation (Kinase HotSpot)
T27 sequence (O00506 whole entry): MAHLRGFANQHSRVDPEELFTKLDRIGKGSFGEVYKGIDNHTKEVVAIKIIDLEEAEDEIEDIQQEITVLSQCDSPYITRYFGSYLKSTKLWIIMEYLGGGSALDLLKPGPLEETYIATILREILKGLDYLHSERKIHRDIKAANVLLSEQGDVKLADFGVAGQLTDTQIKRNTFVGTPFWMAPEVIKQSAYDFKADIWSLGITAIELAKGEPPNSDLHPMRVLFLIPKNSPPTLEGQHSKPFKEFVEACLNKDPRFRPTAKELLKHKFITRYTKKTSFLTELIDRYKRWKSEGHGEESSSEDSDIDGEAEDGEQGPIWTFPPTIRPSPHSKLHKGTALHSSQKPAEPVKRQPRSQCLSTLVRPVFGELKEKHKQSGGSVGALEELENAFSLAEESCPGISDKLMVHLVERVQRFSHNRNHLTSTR
Summary of the method: as §1

TLK1 = molecular target: T28, TLK1 (Homo sapiens, UniProt Q9UKI8)
T28 construct: purchased Reaction Biology Corporation (Kinase HotSpot)
Summary of the method: as §1

TTBK2 = molecular target: T29, TTBK2 (Homo sapiens, UniProt Q6IQ55)
T29 construct: purchased Reaction Biology Corporation (Kinase HotSpot)
Summary of the method: as §1

c-MER = molecular target: T30, c-MER (Homo sapiens, UniProt Q12866)
T30 construct: purchased Reaction Biology Corporation (Kinase HotSpot)
T30 sequence (Q12866 21-999): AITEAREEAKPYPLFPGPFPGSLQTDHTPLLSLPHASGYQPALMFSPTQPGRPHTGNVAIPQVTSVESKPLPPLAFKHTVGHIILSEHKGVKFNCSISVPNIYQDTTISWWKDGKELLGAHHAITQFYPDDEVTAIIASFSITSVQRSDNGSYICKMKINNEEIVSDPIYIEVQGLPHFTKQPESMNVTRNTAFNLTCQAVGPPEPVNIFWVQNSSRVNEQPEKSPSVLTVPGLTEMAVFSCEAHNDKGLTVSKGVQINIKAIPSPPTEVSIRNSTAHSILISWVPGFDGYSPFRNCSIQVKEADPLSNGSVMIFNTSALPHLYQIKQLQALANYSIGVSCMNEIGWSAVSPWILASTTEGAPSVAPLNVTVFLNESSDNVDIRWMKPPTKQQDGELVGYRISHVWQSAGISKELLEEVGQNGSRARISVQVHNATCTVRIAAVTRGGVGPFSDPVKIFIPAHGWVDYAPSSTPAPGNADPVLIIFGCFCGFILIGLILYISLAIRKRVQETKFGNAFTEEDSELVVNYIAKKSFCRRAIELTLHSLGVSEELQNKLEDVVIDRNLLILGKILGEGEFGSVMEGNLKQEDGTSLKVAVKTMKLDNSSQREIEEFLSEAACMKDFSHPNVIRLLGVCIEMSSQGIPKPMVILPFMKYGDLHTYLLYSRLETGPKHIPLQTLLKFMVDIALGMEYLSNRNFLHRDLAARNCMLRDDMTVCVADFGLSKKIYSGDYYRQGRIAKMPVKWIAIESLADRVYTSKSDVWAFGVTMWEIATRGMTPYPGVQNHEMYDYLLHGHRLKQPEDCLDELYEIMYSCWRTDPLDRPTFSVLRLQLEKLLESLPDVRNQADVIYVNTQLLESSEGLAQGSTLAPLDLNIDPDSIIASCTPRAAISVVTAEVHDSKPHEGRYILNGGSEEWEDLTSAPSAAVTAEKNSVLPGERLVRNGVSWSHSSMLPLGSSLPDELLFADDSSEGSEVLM
Summary of the method: as §1

**Q.** What does the source list for `Cc1cnc(N[C@H]2CC[C@H](N)CC2)nc1-c1cnc2ccc(-c3ccccc3)cn12` [CDDD11-8]?
**A.** remaining activity at 1 µM (ABL2/ARG): 67.5%; remaining activity at 1 µM (ACK1): 64.5%; remaining activity at 1 µM (AKT1): 95%; remaining activity at 1 µM (ALK2/ACVR1): 121%; remaining activity at 1 µM (ALK5/TGFBR1): 93.9%; remaining activity at 1 µM (CAMKK2): 47.7%; remaining activity at 1 µM (CDK5/p25): 77.8%; remaining activity at 1 µM (CDK7/cyclin H): 63.7%; remaining activity at 1 µM (CK2a2): 74.7%; remaining activity at 1 µM (DAPK1): 96.1%; remaining activity at 1 µM (DAPK2): 81.2%; remaining activity at 1 µM (DMPK): 96.2%; remaining activity at 1 µM (EPHA8): 83.5%; remaining activity at 1 µM (FER): 70%; remaining activity at 1 µM (FGR): 73.4%; remaining activity at 1 µM (FLT3): 2.43%; remaining activity at 1 µM (GSK3b): 94.5%; remaining activity at 1 µM (Haspin): 65.1%; remaining activity at 1 µM (IRR/INSRR): 101%; remaining activity at 1 µM (MEK5): 99.6%; remaining activity at 1 µM (MUSK): 72.7%; remaining activity at 1 µM (NEK6): 96.2%; remaining activity at 1 µM (PBK/TOPK): 102%; remaining activity at 1 µM (PDGFRb): 40.2%; remaining activity at 1 µM (PKAcb): 89.6%; remaining activity at 1 µM (ROCK2): 88.9%; remaining activity at 1 µM (STK25/YSK1): 97.2%; remaining activity at 1 µM (TLK1): 110%; remaining activity at 1 µM (TTBK2): 93%; remaining activity at 1 µM (c-MER): 52.3%
